Experimental data from US10513519B2, “Solid forms of (1S,4S)-4-(2-(((3S,4R)-3-fluorotetrahydro-2H-pyran-4-yl)amino)-8-((2,4,6-trichlorophenyl)amino)-9H-purin-9-yl)-1-methylcyclohexane-1-carboxamide and methods of their use” (Signal Pharmaceuticals, LLC, priority 2016, dated 2019).

Columns and labels:
[1] = test system: pRSK1 S380 in Colo 205 cells; test: pRSK1 S380 Mesoscale assay in Colo 205 (incl. time course); format: cell-based
Method: (§1) Cancer cells were seeded at a density of 25,000 cells per well in 96-well tissue culture plates and incubated at 37° C. in a CO2 incubator overnight. After treatment with Compound 1 at 37° C. for 2 h, the cells were lysed with Mesoscale lysis buffer and pRSK S380 levels in each lysate were measured via Mesoscale ELISA technology.
In a time course experiment, Colo-205 cancer cells were treated with 0.5 μM Compound 1 for various time periods. The effect of Compound 1 on pRSK S380 was measured as described. The effect of Compound 1 on other MAPK pathway markers (DUSP4 and DUSP6) was measured via Western blotting with specific antibodies.

[2] = test system: DUSP4, DUSP6, SPRY2, c-Myc, cyclin D1, Axin2, CTGF, AREG mRNA in Colo 205 (BRAF V600E); test: Quantitative PCR (Cell-To-CT kit) in Colo 205; format: cell-based
Method: The ability of Compound 1 to inhibit MAPK signaling was assessed by determining the DUSP4 and DUSP6 protein expression. Colon cancer cell line Colo 205 (BRAF V600E) cultures were treated with DMSO or increasing concentrations of Compound 1 for 2, 8 or 24 h. Proteins were extracted from treated cells and analyzed by Western blot using antibodies against DUSP4, DUSP6, cyclin D1, c-Myc, YAP or β-actin. RNAs were extracted using Cell-To-CT kit and quantitative PCR was performed with probes specific for DUSP4, DUSP6, SPRY2, c-Myc and cyclin D1. Specific probes for β-actin were used for normalization.
Cellular activity against beta-catenin and YAP target genes by Compound 1 was evaluated. Colon cancer cell line Colo 205 (BRAF V600E) cultures were treated with DMSO or increasing concentrations of Compound 1 for 2, 8 or 24 h. RNAs were extracted using Cell-To-CT kit and quantitative PCR was performed with probes specific for Axin2, CTGF, and AREG. Specific probes for β-actin were used for normalization.
Compound 1 modulation of MAPK, WNT/β-catenin, and Hippo/YAP pathway genes was evaluated by real-time (RT)-qPCR. […], SW48, and Colo-205 cells were plated in 96-well plates at a density of 20,000 cells per well and were allowed to attach overnight. Compound 1 was added to cells at half log concentrations from 1 nM to 10 μM for durations of 2, 8, and 24 hours. Cells were harvested using the TaqMan Gene Expression Cells-to-CT Kit according to the product manual. Next, RT-PCR was performed and the resulting cDNA was used in qPCR reactions on the ViiA7 Real-Time PCR System (Thermo Fisher Scientific). TaqMan probes were used to monitor changes in DUSP4, DUSP6, SPRY2, MYC, CCND1, AXIN2, CTGF, Cyr61, AREG, and ACTB genes. All genes were normalized to ACTB expression and reported as percentage of DMSO-only control.

[3] = test system: cell lines having β-catenin mutations; test: Sensitivity of cell lines by mutation status (β-catenin, BRAF, RB, PI3K/PTEN); format: cell-based
Method: Evaluation of sensitivity in cell lines having beta-catenin mutations. The effect of Compound 1 on cell lines having β-catenin mutations was evaluated. (FIG. 205 and FIGS. 206A-206B).

[4] = test system: Axin2 expression in human bronchial epithelial cells; test: Axin2 gene expression in human bronchial epithelial cells; format: cell-based; conditions: 0.1, 1, 10 μM; Wnt3a and/or RSPO3 stimulation; 24 hours
Method: Human bronchial epithelial cells were cultured in T-150 flasks in BEpiCM growth medium and allowed to reach 80% confluency. Cells were plated in 12-well plastic culture plates at 150,000 cells per well in BEpiCM medium for 24 hours. After a 24-hour incubation, cells were treated with dimethyl sulfoxide (DMSO) as a control, Compound 1 at 0.1, 1, 10 μM, for 30 minutes. Cells were then stimulated with 100 ng/ml recombinant Wnt3a (formulated in phosphate buffered saline [PBS]), 350 pM RSPO3 (formulated in PBS) or a combination of Wnt3 and RSPO3 for 24 hours. Ribonucleic acid (RNA) was isolated using a Qiagen Rneasy Mini Kit according to manufacturer's instruction. Axin2 and gene expression was determined using reverse transcription polymerase chain reaction (RT-PCR) Taq-Man assays. Quantitative PCR (qPCR) was performed using SuperScript® III One-Step RT-PCR System and ran on a Viia 7 Real-Time PCR System. Data was normalized to glyceraldehyde 3-phosphate dehydrogenase. […] Gene expression was measured at 24 hours. […] (FIG. 209).

HCT-116 (colo) cells = test: Long term colony assay, HCT-116; format: cell-based; conditions: HCT-116, up to 8 weeks
Method: Compound 1 was assessed for its ability to inhibit the colony formation of cancer cells via a long-term colony forming assay. Cells and compounds were added to 96-well plates and were monitored for up to 8 weeks for the formation of colonies. Compound and media were replenished every 1 week throughout the course of the assay. Colony formation was detected via imaging at 4× on the IncuCyte ZOOM System. […] (FIGS. 210A-210D).

SW48 xenograft = test: β-catenin mutant SW48 colorectal xenograft model; format: in vivo, SCID mice
From the text: Female SCID mice were inoculated with 2×10^6 SW48 tumor cells into the right flank. Mice were randomized into treatment groups (n=10/group) at the time of treatment initiation. Test article treatment started on Day 10 when the tumors were approximately 110 and 105 mm^3. (FIGS. 202A-202B) Black dotted line is the tumor volume at the initiation of dosing. Graph on the left is a dose-response study. Graph on the right is a time to progression study where animals were maintained on drug during the course of the study. Dotted line is the tumor volume on Day 28 when the vehicle control group was terminated.

pRSK1 S380 in AGS cells = test: pRSK1 S380 Mesoscale assay in AGS; format: cell-based; conditions: Homo sapiens, 2 h treatment, n = 3
Method: as §1

For C[C@]1(C(N)=O)CC[C@@H](n2c(Nc3c(Cl)cc(Cl)cc3Cl)nc3cnc(N[C@@H]4CCOC[C@H]4F)nc32)CC1 [Compound 1, cis-4-[2-{[(3S,4R)-3-fluorooxan-4-yl]amino}-8-(2,4,6-trichloroanilino)-9H-purin-9-yl]-1-methylcyclohexane-1-carboxamide], the pRSK1 inhibition ([1]; Colo 205, 2 h) was “potently inhibited pRSK1”, the “inhibition of ERK targets pRSK1, DUSP4 and DUSP6 over time” value ([1]; Colo-205, 0.5 μM, time course) was “sustained inhibition (up to 72 hr)” and the IC50 ([1]; Homo sapiens, Colo 205, 2 h treatment, n = 3) was 47 nM. For the same compound, the “Axin2 RNA” value ([2]; Colo 205) was “increased Axin2 RNA”, the “expression of Hippo/YAP target genes (CTGF, AREG)” value ([2]; Colo 205, 2, 8 and 24 hr) was “significantly reduced” and the SPRY2 transcription ([2]; Colo 205, 2, 8 or 24 h) was “reduction of SPRY2 transcription in a concentration-dependent manner”. The “efficacy against cell lines with mutated β-catenin” value [3] was “showed efficacy”, the Axin2 expression [4] was “inhibits Axin2 expression” and the “inhibition of colony formation vs trametinib and GDC0994” value (HCT-116 (colo) cells) was “greater levels of inhibition than seen with treatment with MEK inhibitors or ERK inhibitors”. The antitumor activity (SW48 xenograft) was “Significant antitumor activity” and the IC50 (pRSK1 S380 in AGS cells) was 20 nM.
